Read-outs that look alike come from different tables or passages of the source.

The values that follow come from US11521704B2, “Method for probing at least one binding site of a protein” (priority 2017, dated 2022).

For assay [1], the system named is SF-2 wild-type HIV-1 protease. In words: Cell-based replicon assay. The note with it: Human immunodeficiency virus 1, cell-based replicon assays. From the text:
(§1) A diverse panel of 15 HIV-1 protease variants was chosen with a broad range of sequence substitutions containing single site mutants and more heavily mutated multi-drug resistant proteases (MDR-PRs). Both the SF-2 and NL4-3 wild-type (WT) proteases were used as controls for the variants in the panel. These two WT proteins shared 95% identity, varying at positions 7, 14, 41, 63 and 64 (FIG. 2). […] Table 1 is a listing of EC50 values for clinically-derived HIV-1 protease variants determined by cell-based assays at the Swanstrom laboratory at UNC-Chapel Hill, and fold changes relative to wild type NL4-3. The EC50 value for variant ATA21 could not be determined.
Background: Replicon systems follow genome replication, usually without infectious particles.

Assay [2] has as its system NL4-3 wild-type HIV-1 protease. In words: Cell-based assay (Swanstrom laboratory). The note with it: Human immunodeficiency virus 1, NL43.
Source text: as §1

Assay [3] has as its system clinically-derived HIV-1 protease variant KY26. In words: Cell-based assay (Swanstrom laboratory). Conditions: Human immunodeficiency virus 1.
Assay [4] has as its system clinically-derived HIV-1 protease variant SLK19. Briefly: Cell-based assay (Swanstrom laboratory). The note with it: Human immunodeficiency virus 1.
Assay [5] relates to clinically-derived HIV-1 protease variant VEG23. Briefly: Cell-based assay (Swanstrom laboratory). The note with it: Human immunodeficiency virus 1.
The subject of assay [6] is clinically-derived HIV-1 protease variant VSL23. In words: Cell-based assay (Swanstrom laboratory). The note with it: Human immunodeficiency virus 1.

As for `CC(C)CN(C[C@@H](O)[C@H](Cc1ccccc1)NC(=O)O[C@H]1CO[C@H]2OCC[C@H]21)S(=O)(=O)c1ccc(N)cc1` [DRV, Darunavir], the EC50 (usually the concentration that produces a half-maximal response) in assay [1] turned out to be 4 nM; in assay [2] (NL4-3, cell-based replicon assays, read-out: EC50), 4 nM; in assay [2] (NL4-3 wild type, read-out: EC50 In), 3.98 nM; in assay [3], 1160 nM; in assay [4] it was 32.5 nM; in assay [5], 7800 nM. The compound also yielded a concentration giving a half-maximal response (EC50) in assay [6] of 320 nM.
